Laboratory results from PMC7211202 (Investigational New Drugs, 2019).
“And” between values parts separate entries of the source, which are not always exact repeats. Equal values may be shown once.

Assay: Patient incidence of adverse events (CTCAE version 4.0)
Type: in vivo
Source text: Each patient was monitored for 21 days for the occurrence of dose-limiting toxicities (DLTs), defined as febrile neutropenia, neutropenic infection, grade 4 neutropenia lasting >7 days, grade ≥ 3 thrombocytopenia lasting >7 days (solid tumors only), grade 3 thrombocytopenia with grade ≥ 2 bleeding (solid tumors only), grade 3 or 4 thrombocytopenia with grade > 1 bleeding (multiple myeloma only), grade 4 thrombocytopenia (solid tumors only), or grade 4 thrombocytopenia lasting >14 days (multiple myeloma only), or as grade ≥ 3 nausea, vomiting, or diarrhea after support; grade 3 fatigue lasting >7 days; any other grade ≥ 3 adverse event (AE); grade ≥ 3 kidney injury (multiple myeloma only), or treatment-related AEs not returning to grade ≤ 1 (solid tumors only) per Common Terminology Criteria for Adverse Events (CTCAE), version 4.0. The MTD was defined as the maximum dose, at which the probability of a DLT was ≤25% in Part 1A and ≤ 33% in Parts 1B and 1C. Treatment continued until disease progression, intolerable toxicity, or withdrawal of consent.
AEs were recorded for all enrolled patients.

[1] = 240-mg dose expansion, Other Solid (n = 16)
[2] = 240-mg dose expansion, Total (n = 68)
[3] = 240-mg dose expansion, WDLPS (n = 10)
[4] = 240-mg dose expansion, all patients

With `CC(C)[C@@H](CS(=O)(=O)C(C)C)N1C(=O)[C@@](C)(CC(=O)O)C[C@H](c2cccc(Cl)c2)[C@H]1c1ccc(Cl)cc1` [AMG 232] the “Serious, treatment-related AE: Hyperlipasemia (grade 3)” value (“Serious … Hyperlipasemia (grade 3)” below) [1] was 0 n (%), the “Serious, treatment-related AE: Nausea (grade 3)” value [1] was 0 n (%) and the “Serious, treatment-related AE: Pulmonary embolism (grade 3)” value (“Serious … Pulmonary embolism (grade 3)” below) [1] was 0 n (%). The “Serious, treatment-related AE: Vomiting (grade 3)” value (“Serious … Vomiting (grade 3)” below) [1] was 0 n (%), the “Treatment-related AE: Anemia” value [1] was 3 (19) n (%) and the “Treatment-related AE: Asthenia” value [1] was 2 (13) n (%). For the same molecule, the “Treatment-related AE: Decrease appetite” value [1] was 4 (25) n (%), the “Treatment-related AE: Diarrhea” value [1] was 8 (50) n (%) and the “Treatment-related AE: Dysgeusia” value [1] was 2 (13) n (%). For the same molecule, the “Treatment-related AE: Fatigue” value [1] was 6 (38) n (%), the “Treatment-related AE: Nausea” value [1] was 11 (69) n (%) and the “Treatment-related AE: Neutropenia” value [1] was 1 (6) n (%). The “Treatment-related AE: Thrombocytopenia” value [1] was 2 (13) n (%), the “Treatment-related AE: Vomiting” value [1] was 8 (50) n (%) and the “Patients with any treatment-emergent AE” value [2] was 67 (99%) n (%) and 67 (99) n (%). The “Patients with any treatment-emergent serious AE” value [2] was 29 (43%) n (%) and 29 (43) n (%), the “Patients with any treatment-related AE, Grade 3” value (from here on “Patients … Grade 3”) [2] was 25 (37) n (%) and the “Patients with any treatment-related AE, Grade 4” value (shortened to “Patients … Grade 4”) [2] was 8 (12) n (%). The “Patients with any treatment-related AE, Grade 5” value (“Patients … Grade 5” below) [2] was 0 n (%), the “Serious, treatment-related AE: Dehydration (grade 3)” value [2] was 1 (2) n (%) and the “Serious, treatment-related AE: Diarrhea (grade 3)” value [2] was 1 (2) n (%). For the same molecule, the “Serious, treatment-related AE: Hyperamylasemia (grade 3)” value [2] was 1 (2) n (%), the “Serious … Hyperlipasemia (grade 3)” value [2] was 1 (2) n (%) and the “Serious, treatment-related AE: Nausea (grade 3)” value [2] was 1 (2) n (%). For the same molecule, the “Serious … Pulmonary embolism (grade 3)” value [2] was 1 (2) n (%), the “Serious … Vomiting (grade 3)” value [2] was 3 (4) n (%) and the “Treatment-related AE: Anemia” value [2] was 10 (15) n (%). For the same molecule, the “Treatment-related AE: Asthenia” value [2] was 9 (13) n (%), the “Treatment-related AE: Decrease appetite” value [2] was 28 (41) n (%) and the “Treatment-related AE: Diarrhea” value [2] was 46 (68) n (%). For the same molecule, the “Treatment-related AE: Dysgeusia” value [2] was 9 (13) n (%), the “Treatment-related AE: Fatigue” value [2] was 32 (47) n (%) and the “Treatment-related AE: Nausea” value [2] was 46 (68) n (%). The “Treatment-related AE: Neutropenia” value [2] was 12 (18) n (%), the “Treatment-related AE: Thrombocytopenia” value [2] was 14 (21) n (%) and the “Treatment-related AE: Vomiting” value [2] was 32 (47) n (%). The “Patients with any serious, treatment-related AE” value [3] was 2 (20) n (%), the “Patients with any treatment-emergent AE” value [3] was 10 (100) n (%) and the “Patients with any treatment-emergent serious AE” value [3] was 5 (50) n (%). The “Patients with any treatment-related AE” value [3] was 10 (100) n (%), the “Patients … Grade 3” value [3] was 6 (60) n (%) and the “Patients … Grade 4” value [3] was 3 (30) n (%). The “Patients … Grade 5” value [3] was 0 n (%), the “Serious, treatment-related AE: Dehydration (grade 3)” value [3] was 1 (10) n (%) and the “Serious, treatment-related AE: Diarrhea (grade 3)” value [3] was 0 n (%). For the same molecule, the “Serious, treatment-related AE: Hyperamylasemia (grade 3)” value [3] was 0 n (%), the “Serious … Hyperlipasemia (grade 3)” value [3] was 0 n (%) and the “Serious, treatment-related AE: Nausea (grade 3)” value [3] was 0 n (%). The “Serious … Pulmonary embolism (grade 3)” value [3] was 1 (10) n (%), the “Serious … Vomiting (grade 3)” value [3] was 0 n (%) and the “Treatment-related AE: Anemia” value [3] was 5 (50) n (%). The “Treatment-related AE: Asthenia” value [3] was 0 n (%), the “Treatment-related AE: Decrease appetite” value [3] was 7 (70) n (%) and the “Treatment-related AE: Diarrhea” value [3] was 9 (90) n (%). The “Treatment-related AE: Dysgeusia” value [3] was 1 (10) n (%), the “Treatment-related AE: Fatigue” value [3] was 8 (80) n (%) and the “Treatment-related AE: Nausea” value [3] was 10 (100) n (%). The “Treatment-related AE: Thrombocytopenia” value [3] was 6 (60) n (%), the “Treatment-related AE: Vomiting” value [3] was 7 (70) n (%) and the “Treatment-emergent AE: anemia” value [4] was 25%. The “Treatment-emergent AE: decreased appetite” value [4] was 41%, the “Treatment-emergent AE: diarrhea” value [4] was 72% and the “Treatment-emergent AE: fatigue” value [4] was 53%. For the same molecule, the “Treatment-emergent AE: nausea” value [4] was 72%, the “Treatment-emergent AE: thrombocytopenia” value [4] was 24% and the “Treatment-emergent AE: vomiting” value [4] was 59%. For the same molecule, the “Treatment-related AE: Diarrhea” value [4] was 68%, the “Treatment-related AE: Fatigue” value [4] was 47% and the “Treatment-related AE: Nausea” value [4] was 68%. The “Treatment-related AE: Thrombocytopenia” value [4] was 21%, the “Treatment-related AE: Vomiting” value [4] was 47% and the “Treatment-related AE: decreased appetite” value [4] was 41%. The “Patients with fatal AEs while on study” value (240-mg dose expansion, two with disease progression and one with physical deterioration) was “Three”, the “AE resulting in treatment discontinuation: febrile neutropenia” value (dose escalation) was 1 n and the “AE resulting in treatment discontinuation: neutropenia” value (dose escalation) was 2 n. The “AE resulting in treatment discontinuation: thrombocytopenia” value (dose escalation) was 5 n, the “Patients with AEs resulting in treatment discontinuation” value (dose escalation) was “eight” and the “Patients with fatal AEs of disease progression while on study” value (dose escalation) was “Four”. For the same molecule, the “Patients with any treatment-emergent AE” value (dose escalation, 15 mg (n = 3)) was 1 (33) n (%), the “Patients with any treatment-emergent serious AE” value (dose escalation, 15 mg (n = 3)) was 1 (33) n (%) and the “Patients with any treatment-related AE” value (dose escalation, 15 mg (n = 3)) was 1 (33) n (%). The “Patients … Grade 3” value (dose escalation, 15 mg (n = 3)) was 0 n (%), the “Patients … Grade 4” value (dose escalation, 15 mg (n = 3)) was 0 n (%) and the “Patients … Grade 5” value (dose escalation, 15 mg (n = 3)) was 0 n (%). For the same molecule, the “Patients with any treatment-related serious AE” value (dose escalation, 15 mg (n = 3)) was 0 n (%), the “Treatment-related AE: Abdominal pain” value (dose escalation, 15 mg (n = 3)) was 0 n (%) and the “Treatment-related AE: Anemia” value (dose escalation, 15 mg (n = 3)) was 0 n (%). For the same molecule, the “Treatment-related AE: Asthenia” value (dose escalation, 15 mg (n = 3)) was 0 n (%), the “Treatment-related AE: Decrease appetite” value (dose escalation, 15 mg (n = 3)) was 0 n (%) and the “Treatment-related AE: Diarrhea” value (dose escalation, 15 mg (n = 3)) was 0 n (%). For the same molecule, the “Treatment-related AE: Dysgeusia” value (dose escalation, 15 mg (n = 3)) was 0 n (%), the “Treatment-related AE: Fatigue” value (dose escalation, 15 mg (n = 3)) was 1 (33) n (%) and the “Treatment-related AE: Myalgia” value (dose escalation, 15 mg (n = 3)) was 0 n (%). The “Treatment-related AE: Nausea” value (dose escalation, 15 mg (n = 3)) was 0 n (%), the “Treatment-related AE: Neutropenia” value (dose escalation, 15 mg (n = 3)) was 0 n (%) and the “Treatment-related AE: Thrombocytopenia” value (dose escalation, 15 mg (n = 3)) was 0 n (%). For the same molecule, the “Treatment-related AE: Upper abdominal pain” value (dose escalation, 15 mg (n = 3)) was 0 n (%), the “Treatment-related AE: Vomiting” value (dose escalation, 15 mg (n = 3)) was 0 n (%) and the “Treatment-related serious AE: Abdominal pain (grade 2)” value (dose escalation, 15 mg (n = 3)) was 0 n (%). The “Treatment-related serious AE: Dehydration (grade 2)” value (dose escalation, 15 mg (n = 3)) was 0 n (%), the “Treatment-related serious AE: Diarrhea” value (dose escalation, 15 mg (n = 3)) was 0 n (%) and the “Treatment-related serious AE: Diarrhea, Grade 2” value (dose escalation, 15 mg (n = 3)) was 0 n (%). The “Treatment-related serious AE: Diarrhea, Grade 3” value (dose escalation, 15 mg (n = 3)) was 0 n (%), the “Treatment-related serious AE: Febrile neutropenia (grade 3)” value (dose escalation, 15 mg (n = 3)) was 0 n (%) and the “Treatment-related serious AE: Hematemesis (grade 3)” value (dose escalation, 15 mg (n = 3)) was 0 n (%). For the same molecule, the “Treatment-related serious AE: Nausea (grade 3)” value (dose escalation, 15 mg (n = 3)) was 0 n (%), the “Treatment-related serious AE: Neutropenia (grade 4)” value (dose escalation, 15 mg (n = 3)) was 0 n (%) and the “Treatment-related serious AE: Non-cardiac chest pain (grade 3)” value (dose escalation, 15 mg (n = 3)) was 0 n (%). For the same molecule, the “Treatment-related serious AE: Thrombocytopenia (grade 4)” value (dose escalation, 15 mg (n = 3)) was 0 n (%), the “Treatment-related serious AE: Vomiting” value (dose escalation, 15 mg (n = 3)) was 0 n (%) and the “Treatment-related serious AE: Vomiting, Grade 2” value (dose escalation, 15 mg (n = 3)) was 0 n (%). The “Treatment-related serious AE: Vomiting, Grade 3” value (dose escalation, 15 mg (n = 3)) was 0 n (%), the “Patients with any treatment-emergent AE” value (dose escalation, 30 mg (n = 3)) was 3 (100) n (%) and the “Patients with any treatment-emergent serious AE” value (dose escalation, 30 mg (n = 3)) was 0 n (%). For the same molecule, the “Patients with any treatment-related AE” value (dose escalation, 30 mg (n = 3)) was 1 (33) n (%), the “Patients … Grade 3” value (dose escalation, 30 mg (n = 3)) was 0 n (%) and the “Patients … Grade 4” value (dose escalation, 30 mg (n = 3)) was 0 n (%). The “Patients … Grade 5” value (dose escalation, 30 mg (n = 3)) was 0 n (%), the “Patients with any treatment-related serious AE” value (dose escalation, 30 mg (n = 3)) was 0 n (%) and the “Treatment-related AE: Abdominal pain” value (dose escalation, 30 mg (n = 3)) was 0 n (%). The “Treatment-related AE: Anemia” value (dose escalation, 30 mg (n = 3)) was 0 n (%), the “Treatment-related AE: Asthenia” value (dose escalation, 30 mg (n = 3)) was 0 n (%) and the “Treatment-related AE: Decrease appetite” value (dose escalation, 30 mg (n = 3)) was 0 n (%). The “Treatment-related AE: Diarrhea” value (dose escalation, 30 mg (n = 3)) was 1 (33) n (%), the “Treatment-related AE: Dysgeusia” value (dose escalation, 30 mg (n = 3)) was 0 n (%) and the “Treatment-related AE: Fatigue” value (dose escalation, 30 mg (n = 3)) was 1 (33) n (%). The “Treatment-related AE: Myalgia” value (dose escalation, 30 mg (n = 3)) was 0 n (%), the “Treatment-related AE: Nausea” value (dose escalation, 30 mg (n = 3)) was 1 (33) n (%) and the “Treatment-related AE: Neutropenia” value (dose escalation, 30 mg (n = 3)) was 0 n (%). For the same molecule, the “Treatment-related AE: Thrombocytopenia” value (dose escalation, 30 mg (n = 3)) was 0 n (%), the “Treatment-related AE: Upper abdominal pain” value (dose escalation, 30 mg (n = 3)) was 0 n (%) and the “Treatment-related AE: Vomiting” value (dose escalation, 30 mg (n = 3)) was 1 (33) n (%). For the same molecule, the “Treatment-related serious AE: Abdominal pain (grade 2)” value (dose escalation, 30 mg (n = 3)) was 0 n (%).
